From a melting point compilation (Tetko et al.)

Structure (SMILES)	melting point [°C]
O=S1(=O)OC(Cl)c2ccccc21 (centres undefined)	110 to 116
O=CNc1ccc(Cl)cc1C(=O)c1ccccc1	89 to 91
O=C(CCBr)N1CCN(C(=O)CCBr)CC1	106
CC1(C)C(=O)N(O)C(C)(C)C(=O)N1O	300 to 303
CC1=CC(C)(C)Nc2ccccc21	26.5
O=Cc1ccccc1CN1CCOCC1	67 to 68
Cc1ccc(CNC2=CC(=O)c3ccccc3C2=O)nc1	134 to 136
Cc1n[nH]c(C)c1C	137 to 139
COc1ccc(NC(N)=S)c(OC)c1	199 to 201
CC(C)c1ccccc1	-96
O=C(O)C=Cc1ccc(-c2ccc(F)cc2F)o1	218 to 220
O=C(NCc1ccccn1)C(F)(F)F	75
CC1=CC2OC3C(O)CC(C)(C34CO4)C2(CO)C(O)C1=O (centres undefined)	152
N#CCC(=O)N1CCOCC1	87 to 89
CSc1ncccc1C(=O)NC(CC(C)C)C(=O)O (centres undefined)	143 to 146
Cc1c(C(=O)c2ccccc2C(=O)O)sc2ccccc12	181 to 183
Cc1c(Cl)cccc1S(=O)(=O)Cl	71 to 73
O=S(=O)(O)c1ccc(N=Nc2ccc(N=Nc3ccc(S(=O)(=O)O)cc3)cc2)cc1	157
O=C(c1ccccc1)c1ccc(F)cc1	47

Structure (SMILES)	melting point [°C]
CC(=CNNc1nc(C)cc(C)n1)c1ccccn1	142 to 145
CC(=CC(=O)O)C1CCCCC1	85.5
O=[N+]([O-])c1ccccc1CBr	47
O=C1c2ccccc2-c2ccc(Cl)cc21	126
O=C(O)c1cnccn1	222 to 225
N#CC(=Cc1ccccc1Cl)c1nc2ccccc2s1	139
COc1cc2c(c3oc(=O)c4c(c13)CCOC4=O)C1C=COC1O2 (centres undefined)	245
CC(=O)c1ccc([N+](=O)[O-])s1	106
CCOC(=O)CC(SP(=S)(OC)OC)C(=O)OCC (centres undefined)	2.8
Sc1nnc(-c2cc(Cl)nc(Cl)c2)o1	205 to 206
CCc1ccc(Cc2ccccc2)cc1	-24
CCOC(=O)C(C#N)=C(N)c1cc2cccc(OC)c2oc1=O	251 to 252
CC(=O)OCOC(=O)C1N2C(=O)C(NC(=O)Cc3ccccc3)C2SC1(C)C (centres undefined)	107
CN1CCN(C2=C(Cl)C(=O)c3ccccc3C2=O)CC1	120
Nc1nc(-c2ccc3ccccc3c2)cs1	155
CCCCCCCCC(O)C(O)CCCCCCCC(=O)O (centres undefined)	90
O=C(c1ccc([N+](=O)[O-])cc1)c1noc(-c2ccc(Cl)cc2)c1S(=O)(=O)c1ccccc1	210
COC(=O)Oc1ccccc1C(=O)O	134
O=S(=O)(Cl)C(Cl)(Cl)Cl	140

Structure (SMILES)	melting point [°C]
CCOP(=O)(O)C(N)=O	174
NS(=O)(=O)c1cnccc1Cl	150 to 155
CC12CCC3C(CCC4CC5SC5CC43C)C1CCC2O (centres undefined)	127
CCSC(=O)Cl	-60
COc1ccc(N)c(C(=O)O)c1	151
CCOCCc1ccc(OCCNc2ncnc(CC)c2Cl)c(C)c1C	70
C[C@@H](O)c1ccncc1	68 to 70
CC(=O)OC1CCC2C3CCC4CC(=C(C)C)CCC4(C)C3CCC12C (centres undefined)	107 to 108
O=C1CCC(c2ccc(NC(=O)c3cccc(C(F)(F)F)c3)cc2)=NN1	234 to 235
Nc1n[nH]cc1Br	133 to 135
COC(=O)C(C(=O)OC)=C1SC2=C(C(=O)c3ccccc3C2=O)N1c1ccccc1	239
CN1Cc2c(ccc3c2OCO3)C2C(O)Cc3cc4c(cc3C21)OCO4 (centres undefined)	136
O=C(Cl)c1sccc1Br	65 to 67
O=C(c1ccccc1)c1ccccc1NC(=O)[C@@H]1CCCN1Cc1ccccc1	100 to 103
FCCCl	-50
CC(=O)c1cc2ccccc2oc1=O	122
Cn1nc(CO)cc1-c1cccs1	56 to 60
Brc1c(Br)c(Br)c(Br)c(Br)c1Br	326
O=C1OC(=O)C2=C1CCCC2	74

The next lines start with the values.

melting point [°C]	Structure (SMILES)
43	C1=CC2c3ccccc3C1C21CC1
290 to 293	Cc1ccc2[nH]c(S)nc2c1
227	COC1=CC(C)C2CC3OC(O)CC4C(C)=C(OC)C(=O)C(C2(C)C1=O)C34C (centres undefined)
134 to 138	O=C1OC(=O)c2ncccc21
174 to 178	N#Cc1coc2ccccc2c1=O
243	O=C(NNC(=S)NCc1ccccc1)C(=O)c1c[nH]c2ccccc12
86 to 90	CC(C)(C)C(=O)Nc1ccccc1Cc1ccccc1
140	Oc1c(Br)ccc2cccnc12
-1	CCCCCCCC(=O)OC(=O)CCCCCCC
143	O=C(O)C=Cc1ccc(F)c(C(F)(F)F)c1
31	CCCCCC(O)CC(=O)CCc1ccc(OC)c(O)c1 (centres undefined)
109	C(=C(/c1ccccc1)c1nc2ccccc2s1)/c1ccccc1
266 to 268	CC(C)(C)S(=O)(=O)c1cnc(-c2ccccn2)nc1N
114 to 115	ClCc1cc2ccccc2nc1Cl
234 to 236	O=C(Nc1cc(O)cc(C(=O)O)c1)OCC1c2ccccc2-c2ccccc21
205 to 207	CC1(c2ccccc2)CC(C(=NNC(N)=S)c2cc3ccccc3o2)C1 (centres undefined)
234 to 235	Cc1cc(C)c2c(N)c(C(N)=O)sc2n1
165	Cc1ccc(S(=O)(=O)Nc2cc(N)c([N+](=O)[O-])cc2NS(=O)(=O)c2ccc(C)cc2)cc1
110	CN1CCN(C2=Nc3ccccc3Oc3ccc(Cl)cc32)CC1
82	CC(=O)C(C#N)(Cc1ccc([N+](=O)[O-])cc1)c1ccccc1 (centres undefined)
162	CC(=O)n1cc(C=O)c2ccccc21
163 to 166	Cc1ncc(S(=O)(=O)C(C)(C)C)c(N)n1
233	Nc1ccn(C2OC(COP(=O)(O)O)C(O)C2O)c(=O)n1 (centres undefined)
180 to 182	Clc1ccc(Cc2c(N=Cc3ccccc3)n[nH]c2N=Cc2ccccc2)cc1

melting point [°C]	Structure (SMILES)
114	Cn1ccsc1=NC(=O)c1ccccc1
229	O=C1c2ncccc2-c2cccnc21
69	CC(=O)Oc1ccc2ccccc2c1
61	CCOC(C/N=C/c1cccc(/C=N/CC(OCC)OCC)c1)OCC
8.5	CCCCCCCCCCCC(=O)OCc1ccccc1
43	CC(F)(F)C(=O)O
48 to 49	Cc1cccc(CS(=O)(=O)Cl)c1
55 to 60	COc1ccc(/C=C/C=O)cc1
115	O=Cc1cc([N+](=O)[O-])ccc1N1CCOCC1
193 to 198	O=C(O)/C=C/c1ccc(F)c(F)c1
-30	CCCCOCCOCCOCCO
34	CCCCCCCCCCCCCCCCCCI
15	COC(=O)C1CC(=O)N(C)C1 (centres undefined)
184 to 186	NNC(=O)Cc1nc(-c2cnccn2)no1
212	COc1ccc(C=CC(=O)Nc2ccccc2C(=O)O)cc1OC
89.8	Oc1ccccc1[C@H]1C[C@H](c2ccccc2)Sc2ccccc2N1
72	Cc1cnc(N)c(Br)c1
183	FC(F)(F)c1nn(CN2CCOCC2)c(=S)n1/N=C/c1ccc2c(c1)OCO2
74	COc1ccc(Br)c2c1C(=O)C2
-42.9	FC(F)(Cl)C(Cl)(Cl)C(F)(F)Cl
126	CC1CCC(O)CC1=CC=C1CCCC2(C)C1CCC2C(C)C=CC(C)C(C)C (centres undefined)
185 to 188	Cc1n[nH]c(SCC(=O)c2ccc(Cl)cc2)n1
305 to 307	CSc1c(C#N)c(N)nc2c(/N=N/c3ccc(C(=O)O)cc3)c(N)nn12
286 to 293	O=C(O)c1ccc(CN2CCCCC2)cc1

melting point [°C]	Structure (SMILES)
32	FC(F)(F)c1ccc2c(c1)NCCC2
146	CCCCCCCOc1ccc(C(=O)O)cc1
257	NC1(C(=O)O)CC1
195	COc1cc(C=CC(=O)O)ccc1OC(C)=O
174	CCOC(=O)Nc1ccc2cc3ccc4c(c3nc2c1)COCN4C(=O)OCC
71	Fc1c(F)c(F)c(P(c2ccccc2)c2ccccc2)c(F)c1F
214	O=C1NN=C(C(F)(F)F)C1=NNc1cc(Cl)ccc1Cl
113 to 115	O=C(Cl)c1ccc(-c2cccs2)cc1
55 to 56	OCc1ccc(Oc2ccccc2)cc1
154	O=C(O)Cc1csc2ccc(Cl)cc12
-78	CCCCNCC
75 to 77	C=CCn1c(SC)nc2ccccc2c1=O
45.5	CC1=CC(=O)C(C(C)C)=CC1=O
64 to 68	Nc1cc(S(=O)(=O)F)ccc1Cl
322	O=C1NN(c2ccccc2)C(=O)C1=Cc1ccc(Cl)cc1
159 to 161	O=C(Nc1ccccc1)C(Cl)=NNc1ccccc1
227 to 229	CC1(C)C2CCC(C2)C12COC(=O)N2 (single isomer, unassigned; (-))
168	Cc1ccc(-c2cc(NN=c3c(C)nc4ccccc4[nH]c3=O)[nH]n2)cc1
201 to 205	N#Cc1ccc2c(c1)COC2=O
81.5 to 82.5	Clc1nccc(-c2ccco2)n1
48 to 50	Cc1ccc(-n2cccc2C=O)cc1
148	CC(=C/C=N/NC(N)=O)C(C)(C)C
134	C=C1[C@@H](c2ccccc2)[C@]2(Cl)C(=O)N(C)C(=O)[C@]12Cl
47	OCc1c(F)ccc(F)c1Cl
